The values that follow come from article doi:10.1101/2025.01.10.632200, “Chemoproteomic Profiling of C. albicans for Characterization of Anti-fungal Kinase Inhibitors” (bioRxiv, 2025).

Broadly, the IC50 is the point on the concentration scale where inhibition reaches its midpoint. A lower IC50 goes with higher potency.

Common to all, as to type: biochemical
The target of experiment [1] is T1, Yck2 (Candida albicans, UniProt A0A1D8PKB4). Description: purified enzyme kinase assay; also NanoBRET ([…]). On the technique in general: Bioluminescence resonance energy transfer reports proximity on the nanometre scale.
Experiment [2] concerns the target T1, Yck2. Briefly: purified enzyme kinase assay; also NanoBRET ([…]) and MIB/MS competition.
For experiment [3], the target named is T2, CK1α (Homo sapiens, UniProt P48729).
T2 construct: gene CSNK1A1
T2 sequence (P48729 2-337): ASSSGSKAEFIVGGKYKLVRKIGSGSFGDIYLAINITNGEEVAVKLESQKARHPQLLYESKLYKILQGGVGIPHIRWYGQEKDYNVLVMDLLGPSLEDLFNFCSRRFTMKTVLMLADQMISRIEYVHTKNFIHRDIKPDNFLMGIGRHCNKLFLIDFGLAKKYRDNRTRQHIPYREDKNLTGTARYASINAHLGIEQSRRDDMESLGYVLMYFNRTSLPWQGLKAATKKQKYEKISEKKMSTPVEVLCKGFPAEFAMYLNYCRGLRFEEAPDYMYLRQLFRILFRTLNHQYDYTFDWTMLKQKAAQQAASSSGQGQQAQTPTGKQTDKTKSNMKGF
Briefly: purified enzyme kinase assay.

The target of experiment [4] is T1, Yck2. Description: purified enzyme kinase assay.
The target of experiment [5] is T3, p38α (Homo sapiens, UniProt Q16539).
T3 construct: gene MAPK14
Description: purified enzyme kinase assay; also NanoBRET ([…]).

Structures are written as SMILES.

T1 sequence (A0A1D8PKB4 entry or part of it): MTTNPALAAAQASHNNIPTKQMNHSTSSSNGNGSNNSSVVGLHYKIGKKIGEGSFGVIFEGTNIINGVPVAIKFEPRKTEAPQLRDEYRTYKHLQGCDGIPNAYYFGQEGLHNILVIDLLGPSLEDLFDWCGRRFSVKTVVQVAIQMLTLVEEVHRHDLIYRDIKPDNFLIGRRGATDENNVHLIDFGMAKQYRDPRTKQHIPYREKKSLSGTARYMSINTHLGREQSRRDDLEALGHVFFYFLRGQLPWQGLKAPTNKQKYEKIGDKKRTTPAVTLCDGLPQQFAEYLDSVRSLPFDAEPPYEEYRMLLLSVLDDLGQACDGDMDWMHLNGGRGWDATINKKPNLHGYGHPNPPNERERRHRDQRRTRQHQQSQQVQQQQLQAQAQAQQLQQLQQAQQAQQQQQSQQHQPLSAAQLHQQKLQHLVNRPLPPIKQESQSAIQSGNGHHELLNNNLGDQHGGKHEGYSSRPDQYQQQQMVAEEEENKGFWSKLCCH
T3 sequence (Q16539 2-360): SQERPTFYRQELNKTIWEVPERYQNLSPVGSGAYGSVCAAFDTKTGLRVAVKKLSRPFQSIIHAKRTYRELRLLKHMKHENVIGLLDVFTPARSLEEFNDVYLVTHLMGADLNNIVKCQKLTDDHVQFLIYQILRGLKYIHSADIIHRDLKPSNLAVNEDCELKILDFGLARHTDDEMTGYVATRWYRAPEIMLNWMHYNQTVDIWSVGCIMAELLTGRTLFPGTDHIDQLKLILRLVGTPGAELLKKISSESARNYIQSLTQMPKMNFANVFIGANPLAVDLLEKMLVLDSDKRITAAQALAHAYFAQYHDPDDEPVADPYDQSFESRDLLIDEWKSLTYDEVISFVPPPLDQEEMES

In experiment [1], `CC(=O)c1cnc2ccc(-c3cc(Cl)c(O)c(Cl)c3)nc2c1N[C@H]1CC[C@H](CN(C)C)CC1` [OTS-167] displayed an IC50 of 0.13 µM.
As to `Cc1n[nH]c2ccc(-c3cc(OC[C@@H](N)Cc4ccccc4)cnc3-c3ccoc3)cc12` [GSK, GSK507358A], the IC50 in experiment [2] was 0.16 µM.
`CN1CCC(F)(Cn2cnc(-c3ccc(F)cn3)c2-c2ccnc3[nH]ccc23)CC1` [MU1742] showed an IC50 in experiment [3] of 0.014 µM.
The compound `Cc1nc(N)sc1-c1ccnc(Nc2ccc(N3CCOCC3)cc2)n1` [Cyc-116] returned an IC50 in experiment [4] of 0.14 µM.
For the compound `Cc1ccc2c(-c3ccncc3)c(-c3ccc(F)cc3)nn2c1` [GW, GW461484A], half-maximal inhibition in experiment [5] (IC50) required 0.17 µM.
